Assay results as given in patent US12465594B2 (Brown University, priority 2018, dated 2025).

How the values were obtained:
5-HT3 = molecular target: T1, 5-HT3 (Homo sapiens, UniProt P46098); experiment: PDSP binding assay; conditions: 10 μM, quadruplicate, cloned target
T1 construct: NIMH Psychoactive Drug Screening Program (PDSP)

[1] = Plasma protein binding (equilibrium dialysis); format: in vitro ADME; conditions: rat plasma
Text: Both compounds were then profiled for their plasma protein binding (PPB) and brain homogenate binding (BHB) to predict the unbound drug fraction in the plasma and brain respectively.

5-HT1D = molecular target: T2, 5-HT1D (Homo sapiens, UniProt P28221); experiment: PDSP binding assay; conditions: 10 μM, quadruplicate, cloned target
T2 construct: NIMH Psychoactive Drug Screening Program (PDSP)
T2 sequence (P28221 whole entry, species assumed): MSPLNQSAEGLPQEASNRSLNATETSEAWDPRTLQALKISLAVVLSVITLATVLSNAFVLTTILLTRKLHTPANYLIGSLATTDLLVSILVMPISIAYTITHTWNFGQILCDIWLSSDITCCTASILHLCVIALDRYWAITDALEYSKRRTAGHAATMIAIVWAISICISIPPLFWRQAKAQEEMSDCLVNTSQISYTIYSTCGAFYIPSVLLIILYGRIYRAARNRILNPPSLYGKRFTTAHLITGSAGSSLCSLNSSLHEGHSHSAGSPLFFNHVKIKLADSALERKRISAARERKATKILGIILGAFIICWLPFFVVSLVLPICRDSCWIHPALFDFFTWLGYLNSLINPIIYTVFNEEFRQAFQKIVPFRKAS

CRF2 = CRF2 (Homo sapiens, UniProt Q13324); experiment: CRF2 Ca2+ assay (absence of CRFBP(10 kD)); conditions: presence of EC80 CRF
CRF2, sequence (Q13324 whole entry): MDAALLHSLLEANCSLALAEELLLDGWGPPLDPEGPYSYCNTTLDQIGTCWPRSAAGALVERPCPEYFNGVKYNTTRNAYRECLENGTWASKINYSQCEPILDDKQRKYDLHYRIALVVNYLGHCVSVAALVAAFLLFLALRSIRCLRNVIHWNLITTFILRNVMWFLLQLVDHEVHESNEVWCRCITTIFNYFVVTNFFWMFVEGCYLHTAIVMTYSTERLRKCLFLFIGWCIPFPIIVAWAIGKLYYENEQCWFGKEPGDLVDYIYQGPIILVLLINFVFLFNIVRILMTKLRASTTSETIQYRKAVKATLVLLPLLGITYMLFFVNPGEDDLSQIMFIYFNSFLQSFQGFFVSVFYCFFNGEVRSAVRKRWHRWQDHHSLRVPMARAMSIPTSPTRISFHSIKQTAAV

Sigma 1 = experiment: PDSP binding assay; conditions: 10 μM, quadruplicate, cloned target
M3 = M3 (Homo sapiens, UniProt P20309); experiment: PDSP binding assay; conditions: 10 μM, quadruplicate, cloned target
M3, sequence (P20309 whole entry): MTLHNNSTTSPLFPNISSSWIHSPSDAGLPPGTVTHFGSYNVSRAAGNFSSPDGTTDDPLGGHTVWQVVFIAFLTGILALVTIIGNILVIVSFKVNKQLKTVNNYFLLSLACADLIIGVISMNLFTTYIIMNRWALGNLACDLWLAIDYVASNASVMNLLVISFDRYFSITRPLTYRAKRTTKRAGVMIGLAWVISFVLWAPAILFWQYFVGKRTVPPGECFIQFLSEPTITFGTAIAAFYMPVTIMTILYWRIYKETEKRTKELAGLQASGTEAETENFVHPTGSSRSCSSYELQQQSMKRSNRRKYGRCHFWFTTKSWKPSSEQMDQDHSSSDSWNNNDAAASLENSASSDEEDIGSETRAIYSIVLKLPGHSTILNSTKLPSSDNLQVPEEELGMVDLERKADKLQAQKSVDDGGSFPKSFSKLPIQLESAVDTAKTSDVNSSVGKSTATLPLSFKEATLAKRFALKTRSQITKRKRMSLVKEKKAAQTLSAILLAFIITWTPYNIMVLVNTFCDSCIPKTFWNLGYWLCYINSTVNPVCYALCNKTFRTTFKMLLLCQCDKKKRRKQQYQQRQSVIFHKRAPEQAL

DOR = DOR (Homo sapiens, UniProt P41143); experiment: PDSP binding assay; conditions: 10 μM, quadruplicate, cloned target
DOR, sequence (P41143 whole entry): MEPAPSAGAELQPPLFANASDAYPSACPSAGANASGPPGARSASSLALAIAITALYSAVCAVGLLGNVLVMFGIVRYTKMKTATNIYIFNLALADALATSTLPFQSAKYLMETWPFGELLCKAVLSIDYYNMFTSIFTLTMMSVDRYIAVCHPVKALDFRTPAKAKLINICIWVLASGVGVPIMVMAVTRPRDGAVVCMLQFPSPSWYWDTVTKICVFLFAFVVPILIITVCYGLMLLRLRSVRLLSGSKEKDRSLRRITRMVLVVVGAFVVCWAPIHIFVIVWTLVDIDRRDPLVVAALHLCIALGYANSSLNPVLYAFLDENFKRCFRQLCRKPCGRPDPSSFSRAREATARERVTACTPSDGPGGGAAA

[2] = system: NMDAR EPSCs in VTA dopamine neurons; experiment: Electrophysiology: CRF potentiation of NMDAR EPSCs in VTA slices; format: cell-based, mouse; conditions: 30 μM compound, CRF 1 μM, VTA-DA neurons, acute brain slices
Text: Male and female mice (n=44; 6-10 weeks) were anesthetized with Euthasol (Butler-Schein). Brains were rapidly removed and placed in ice-cold NMDG-based artificial Cerebrospinal Fluid (aCSF) cutting solution containing (in mM): 92 NMDG, 20 HEPES, 25 glucose, 30 NaHCO3, 2.5 KCl, 1.2 NaPO4 saturated with 95% O2/5% CO2 with an osmolarity of 305-308 mOsm (Advanced Cell Diagnostics). The brain was cut in ice-cold NMDG solution to obtain horizontal VTA slices, 230 μm thick, using a Leica vibratome (Leica VT1200) and slices were incubated in warm NMDG solution (34° C.) for <5 minutes before being placed in a modified aCSF holding solution (in mM): 92 NaCl, 20 HEPES, 25 glucose, 30 NaHCO3, 2.5 KCl, 1.2 NaPO4 (305-308 mOsm). Slices were incubated at room temperature for at least 1 hour before recording.
Whole-cell patch clamp of the lateral VTA was performed under the guidance of IR-DIC optics on an Olympus BX5iWI microscope. Cells were patched with 1.8-3 MO resistance glass microelectrodes containing the following internal solution (in mM): 117 cesium methanesulfonate, 20 HEPES, 0.4 EGTA, 2.8 NaCl, 5 TEA-CI, 4 Mg-ATP, 0.4 Na-GTP, and 5 QX-314 (280-285 mOsm). Dopamine cells were identified by the following criteria: 1) large multipolar soma, 30-40 μm in diameter, 2) tonic firing of <4 Hz when cell attached, 3) large […] with negative voltage step (identified immediately following break in). […] Series resistance was monitored online. […]
For electrophysiology measures, excitatory post-synaptic currents (EPSCs) were normalized to 7 minute of averaged baseline responses, prior to drug application. […] Results are reported as M±SEM a in bar graphs comparing drug to vehicle and analyzed by a one-way ANOVA and post-hoc comparisons to vehicle were performed using a Bonferroni multiple comparisons correction measures (**p<0.01). […]
NMDAR excitatory postsynaptic currents (EPSCs) were recorded from VTA dopamine (DA) neurons in acute brain slices from male and female mice. […]

M4 = M4 (Homo sapiens, UniProt P08173); experiment: PDSP binding assay; conditions: 10 μM, quadruplicate, cloned target
M4, sequence (P08173 whole entry): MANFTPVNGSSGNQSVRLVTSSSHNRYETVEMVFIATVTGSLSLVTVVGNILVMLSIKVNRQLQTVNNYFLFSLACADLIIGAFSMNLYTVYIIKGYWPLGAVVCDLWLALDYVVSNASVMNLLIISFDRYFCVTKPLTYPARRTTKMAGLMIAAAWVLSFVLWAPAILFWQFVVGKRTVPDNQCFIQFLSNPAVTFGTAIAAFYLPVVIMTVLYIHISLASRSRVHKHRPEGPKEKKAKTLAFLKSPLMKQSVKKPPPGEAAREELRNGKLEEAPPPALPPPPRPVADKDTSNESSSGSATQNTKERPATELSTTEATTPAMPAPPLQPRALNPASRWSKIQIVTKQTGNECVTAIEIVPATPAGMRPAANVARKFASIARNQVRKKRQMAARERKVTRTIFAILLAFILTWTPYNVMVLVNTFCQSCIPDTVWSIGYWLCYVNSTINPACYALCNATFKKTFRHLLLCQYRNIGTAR

T1 sequence (P46098 24-478, species assumed): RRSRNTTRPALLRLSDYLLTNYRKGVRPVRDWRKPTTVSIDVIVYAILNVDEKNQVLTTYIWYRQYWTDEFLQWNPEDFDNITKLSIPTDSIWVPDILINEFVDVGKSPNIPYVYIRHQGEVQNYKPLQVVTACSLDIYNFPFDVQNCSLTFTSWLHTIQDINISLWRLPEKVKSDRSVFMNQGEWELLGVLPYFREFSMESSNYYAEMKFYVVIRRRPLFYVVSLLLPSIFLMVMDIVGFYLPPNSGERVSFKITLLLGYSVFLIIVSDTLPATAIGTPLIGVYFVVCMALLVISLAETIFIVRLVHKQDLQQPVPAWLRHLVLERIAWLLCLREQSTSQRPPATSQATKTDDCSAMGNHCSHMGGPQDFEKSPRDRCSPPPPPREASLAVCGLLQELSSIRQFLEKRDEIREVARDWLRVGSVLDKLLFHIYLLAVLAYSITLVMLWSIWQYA

SMILES | Activity at 5-HT3 (binding assay) (5-HT3) | Plasma protein binding, free [1] | Activity at 5-HT1D (binding assay) (5-HT1D) | Activity toward CRF2 in the absence of CRFBP(10 kD) (CRF2) | Activity at Sigma 1 (binding assay) (Sigma 1) | Activity at M3 (binding assay) (M3) | Activity at DOR (binding assay) (DOR) | Block of CRF potentiation of NMDAR EPSCs [2] | Activity at M4 (binding assay) (M4)
Brc1ccccc1-c1nnc(CSc2nnnn2-c2ccccc2)o1 [MLS-0046818] | −2% | 4.6 % free | −5% | inactive | 8% | 13% | −7% | sufficient to block the CRF effect | −12%
CC(C)Cn1c(SCC(=O)N2CCc3ccccc3C2)nc2cc(Cl)ccc2c1=O [MLS-0219419] | 2% | 0.1 % free | −5% |  | 7% | 19% | −8% | sufficient to block the CRF effect | −6%
